According to patent US20220184082A1, “CANCER THERAPY USING 3,5-DISUBSTITUTED BENZENE ALKYNYL COMPOUND AND PEMBROLIZUMAB” (TAIHO PHARMACEUTICAL CO., LTD., priority 2019, published 2022):

B1: vofatamab: an anti-FGFR3 antibody (antibody, chains of the INN, looked up, V domains shown)
VH: EVQLVESGGGLVQPGGSLRLSCAASGFTFTSTGISWVRQAPGKGLEWVGRIYPTSGSTNYADSVKGRFTISADTSKNTAYLQMNSLRAEDTAVYYCARTYGIYDLYVDYTEYVMDYWGQGTLVTVSS
VL: DIQMTQSPSSLSASVGDRVTITCRASQDVDTSLAWYKQKPGKAPKLLIYSASFLYSGVPSRFSGSGSGTDFTLTISSLQPEDFATYYCQQSTGHPQTFGQGTKVEIK

Key:
[1] = test system: mouse breast cancer cell line 4T1; settings: 4T1-implanted BALB/cAJcl mouse; oral daily 14 days, 15 and 30 mg/kg/day; Day 15
Method: On the day following the final administration (Day 15), lymphocyte fractions were isolated from the tumor, spleen, and peripheral blood, and myeloid-derived suppressor cells (MDSCs) (CD11b^+/Gr-1^+ cells), CD4-positive T cells, and CD8-positive T cells were measured using a cell sorter.

[2] = test system: urothelial cancer; settings: cited from earlier work

| Molecule | CD4-positive T cells in the peripheral blood lymphocyte fractions compared with the control [1] | CD8-positive T cells in the peripheral blood lymphocyte fractions compared with the control [1] | CD8-positive T cells in the spleen lymphocyte fractions compared with the control [1] | MDSCs in the peripheral blood lymphocyte fractions compared with the control [1] | Response by combined use with pembrolizumab ([2]; urothelial cancer patients without FGFR genetic aberration, combined with pembrolizumab) | Sensitivity state of the cancer to immune checkpoint inhibitors ([2]; urothelial cancer patients) |
| --- | --- | --- | --- | --- | --- | --- |
| C=CC(=O)N1CC[C@H](n2nc(C#Cc3cc(OC)cc(OC)c3)c3c(N)ncnc32)C1 [compound 1, (S)-1-(3-(4-amino-3-((3,5-dimethoxyphenyl)ethynyl)-1H-pyrazolo[3,4-d]pyrimidin-1-yl)pyrrolidin-1-yl)prop-2-en-1-one] | tended to increase in a dose-dependent manner | tended to increase in a dose-dependent manner | tended to increase in a dose-dependent manner | tended to decrease in a dose-dependent manner | – | – |
| B1 | – | – | – | – | response by combined use with pembrolizumab is observed | change from a “cold” state (low sensitivity to immune checkpoint inhibitors) to a “hot” state (high sensitivity to immune checkpoint inhibitors) |
